Literature values in US10329262B2, “Quinazolinone antibiotics” (priority 2013, dated 2019).

Settings: cited from earlier work

In the case of `CCCCCCCCCC(=O)N[C@@H](Cc1c[nH]c2ccccc12)C(=O)N[C@H](CC(N)=O)C(=O)N[C@@H](CC(=O)O)C(=O)N[C@@H]1C(=O)NCC(=O)N[C@@H](CCCN)C(=O)N[C@@H](CC(=O)O)C(=O)N[C@H](C)C(=O)N[C@@H](CC(=O)O)C(=O)NCC(=O)N[C@H](CO)C(=O)N[C@@H]([C@H](C)CC(=O)O)C(=O)N[C@@H](CC(=O)c2ccccc2N)C(=O)O[C@@H]1C` [daptomycin], the Plasma protein binding is given as greater than 91%.
